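Test compounds were applied to cells in 96-well plates for 48 hours at 5 doses. TGI is the concentration that stops growth completely.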
Tests used:
Test in all cases: NCI anticancer screen, dose series, 48 h
ACHN renal = test system: ACHN renal
BT-549 breast = test system: BT-549 breast
CAKI-1 renal = test system: CAKI-1 renal
COLO 205 colon = test system: COLO 205 colon
EKVX NSCLC = test system: EKVX NSCLC
HOP-92 NSCLC = test system: HOP-92 NSCLC
MALME-3M melanoma = test system: MALME-3M melanoma
MDA-MB-435 = test system: MDA-MB-435
NCI-H460 lung = test system: NCI-H460 lung
NCI-H522 lung = test system: NCI-H522 lung
OVCAR-4 ovarian = test system: OVCAR-4 ovarian
OVCAR-5 ovarian = test system: OVCAR-5 ovarian
RPMI-8226 leukemia = test system: RPMI-8226 leukemia
SNB-19 CNS = test system: SNB-19 CNS
SNB-75 CNS = test system: SNB-75 CNS

Row | Structure (SMILES) | TGI (ACHN renal) [µM] | TGI (BT-549 breast) [µM] | TGI (CAKI-1 renal) [µM] | TGI (COLO 205 colon) [µM] | TGI (EKVX NSCLC) [µM] | TGI (HOP-92 NSCLC) [µM] | TGI (MALME-3M melanoma) [µM] | TGI (MDA-MB-435) [µM] | TGI (NCI-H460 lung) [µM] | TGI (NCI-H522 lung) [µM] | TGI (OVCAR-4 ovarian) [µM] | TGI (OVCAR-5 ovarian) [µM] | TGI (RPMI-8226 leukemia) [µM] | TGI (SNB-19 CNS) [µM] | TGI (SNB-75 CNS) [µM]
1 | CCN(CC)c1ccc2cc(C(N)=O)c(=Nc3ccc(F)cc3)oc2c1 | > 100 | > 100 | > 100 | > 100 | > 100 | > 100 | > 100 | > 100 | > 100 | > 100 | > 100 | > 100 | > 100 | > 100 | 47
2 | CC1C(C#N)(C#N)C(C#N)=C(N)C1(C)[N+](=O)[O-] (stereo not given) | > 100 | > 100 | > 100 | > 100 | 42.6 | 8.96 | > 100 | > 100 | > 100 | > 100 | > 100 | > 100 | > 100 | > 100 | > 100
3 | Nc1ccccc1OCCCOc1ccccc1N | > 100 | > 100 | > 100 | > 100 | > 100 | > 100 | > 100 | > 100 | > 100 | > 100 | > 100 | > 100 | > 100 | > 100 | > 100
4 | CN(/N=C/c1ccc(Cl)cc1)C1=NCCCCN1 | > 100 | > 100 | > 100 | > 100 | > 100 | > 100 | > 100 | > 100 | > 100 | > 100 | > 100 | > 100 | > 100 | > 100 | > 100
5 | COc1cc2[nH]c(=O)c3cc(C)cc4c(Cl)nc(c1OC)c2c43 | > 100 | > 100 | > 100 | > 100 | > 100 | > 100 | 62 | > 100 | > 100 | > 100 | > 100 | > 100 | > 100 | > 100 | 85.3
6 | COC1=CC(=O)c2nc3ccccc3c3ccnc1c23 | > 65.4 | 29.6 | > 53.8 | 26.3 | 25.8 | 48 | 7 | 0.38 | 8.33 | 20.5 | 18.8 | 29.7 | > 65.5 | > 64.9 | 46.1
7 | CC(C)(C)OC(=O)n1c(Cl)c(C=O)c2ccccc21 | 52.9 | 52.5 | 35.4 | > 100 | 76.6 | 56.8 | 39.9 | > 100 | 46.1 | > 100 | > 100 | 72.3 | 44.3 | > 100 | > 100
8 | COc1cc(/C=C/C(=N\NC(=S)NN)c2sc(NNC(C)=O)nc2C)ccc1O | > 100 | > 100 | > 100 | > 100 | > 100 | > 100 | > 100 | > 100 | > 100 | > 100 | > 100 | > 100 | > 100 | > 100 | > 100
9 | C[C@@]12C[C@@H](c3ccccc3O1)N1Cc3ccccc3CSC1=N2 | > 100 | > 100 | > 100 | > 100 | > 100 | > 100 | > 100 | > 100 | > 100 | > 100 | > 100 | > 100 | > 100 | > 100 | > 100
10 | CN(C)C=NCC(O)c1ccccc1 (stereo not given) | > 100 | > 100 | > 100 | > 100 | > 100 | > 100 | > 100 | > 100 | > 100 | > 100 | > 100 | > 100 | > 100 | > 100 | > 100
11 | COc1ccc(Cn2c3ccc([N+](=O)[O-])cc3c(=O)n2Cc2ccccn2)cc1 | > 100 | > 100 | > 100 | > 100 | > 100 | > 100 | > 100 | > 100 | > 100 | > 100 | > 100 | > 100 | > 100 | > 100 | > 100
12 | CC(C)=CCC[C@@H](C)C1=CC(=O)C(C)=C(O)C1=O | 10.8 | 18.1 | 10.5 | 28.3 | 13.9 | 7.18 | 23.3 | 16.9 | 43.1 | 2.78 | 14.2 | 27.5 | 5.64 | 29.4 | 14
13 | COC12C=CC(CC1)C(C)(C)C2OS(C)(=O)=O (stereo not given) | > 100 | > 100 | > 100 | > 100 | > 100 | > 100 | > 100 | > 100 | > 100 | > 100 | > 100 | > 100 | > 100 | > 100 | > 100
14 | COc1ccc(N2N=NN(C(C)C)/C2=C(/Cl)c2nnnn2-c2ccc(OC)cc2)cc1 | 30.7 | 29.7 | 3.16 | 13.1 | 36.1 | 6.19 | 24.7 | 25.5 | 36.6 | 5.48 | 11.6 | 26.9 | > 61.2 | 31.6 | 26.5

Reference: PubChem BioAssay (NCI)
